# Assay results as given in PubChem BioAssay AID328 (DTP/NCI, 2004).
# Values joined by “and” are separate entries in the source; they are usually repeats but may differ in a detail not shown here. Identical values can stand only once. Inconclusive results and toxic doses are left out.
# System: BDF1 mice, P388 leukemia ip, median survival T/C
# Assay: NCI In Vivo Anticancer Drug Screen. Data for tumor model P388 Leukemia (intraperitoneal) in B6D2F1 (BDF1) mice
# Details: endpoint: median survival time, higher = longer survival
# Outline: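 Reported as T/C, where T is the survival measurement in dosed animals and C the same measurement in vehicle controls.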
# [1] = dose: 12.0 mg/kg/injection, schedule: Q01DX009 (ip), vehicle: saline
# [2] = dose: 100.0 mg/kg/injection, schedule: Q04DX003 (ip), vehicle: Klucel (hydroxypropylcellulose) (HPC)
# [3] = dose: 200.0 mg/kg/injection, schedule: Q04DX003 (ip), vehicle: Klucel (hydroxypropylcellulose) (HPC)
# [4] = dose: 400.0 mg/kg/injection, schedule: Q04DX003 (ip), vehicle: Klucel (hydroxypropylcellulose) (HPC)
# [5] = dose: 25.0 mg/kg/injection, schedule: Q04DX003 (ip), vehicle: saline with Tween-80
# [6] = dose: 50.0 mg/kg/injection, schedule: Q04DX003 (ip), vehicle: saline with Tween-80
# [7] = dose: 200.0 mg/kg/injection, schedule: Q01DX009 (ip), vehicle: saline
# [8] = dose: 400.0 mg/kg/injection, schedule: Q01DX009 (ip), vehicle: saline
# [9] = dose: 100.0 mg/kg/injection, schedule: Q01DX009 (ip), vehicle: saline with Tween-80
# [10] = dose: 200.0 mg/kg/injection, schedule: Q01DX009 (ip), vehicle: saline with Tween-80
# [11] = dose: 50.0 mg/kg/injection, schedule: Q01DX009 (ip), vehicle: saline with Tween-80
# [12] = dose: 100.0 mg/kg/injection, schedule: Q04DX003 (ip), vehicle: saline with Tween-80
# [13] = dose: 200.0 mg/kg/injection, schedule: Q04DX003 (ip), vehicle: saline with Tween-80
# [14] = dose: 400.0 mg/kg/injection, schedule: Q04DX003 (ip), vehicle: saline with Tween-80
smiles,measurement,setting,value
O=C(O)CCCc1ccc(N(CCCl)CCCl)cc1,T/C,"dose: 0.25 mg/kg/injection, schedule: Q01DX009 (ip), vehicle: Klucel (hydroxypropylcellulose) (HPC)",123 % of control
same,T/C,"dose: 0.5 mg/kg/injection, schedule: Q01DX009 (ip), vehicle: Klucel (hydroxypropylcellulose) (HPC)",105 % of control
same,T/C,"dose: 1.5 mg/kg/injection, schedule: Q01DX009 (ip), vehicle: Klucel (hydroxypropylcellulose) (HPC)",171 % of control
same,T/C,"dose: 2.0 mg/kg/injection, schedule: Q01DX009 (ip), vehicle: Klucel (hydroxypropylcellulose) (HPC)",165 % of control
same,T/C,"dose: 3.0 mg/kg/injection, schedule: Q01DX009 (ip), vehicle: saline",99 % of control and 100 % of control
same,T/C,"dose: 3.13 mg/kg/injection, schedule: Q01DX010 (ip), vehicle: saline",100 % of control
same,T/C,"dose: 6.0 mg/kg/injection, schedule: Q01DX009 (ip), vehicle: saline",105 % of control
same,T/C,[1],122 % of control
same,T/C,"dose: 12.5 mg/kg/injection, schedule: Q01DX010 (ip), vehicle: saline",172 % of control
same,T/C,"dose: 24.0 mg/kg/injection, schedule: Q01DX009 (ip), vehicle: saline",88 % of control
CCOC(=O)CCCl,T/C,"dose: 100.0 mg/kg/injection, schedule: Q01DX001 (ip), vehicle: Klucel (hydroxypropylcellulose) (HPC)",95 % of control
same,T/C,[2],100 % of control
same,T/C,"dose: 200.0 mg/kg/injection, schedule: Q01DX001 (ip), vehicle: Klucel (hydroxypropylcellulose) (HPC)",104 % of control
same,T/C,[3],104 % of control
same,T/C,"dose: 400.0 mg/kg/injection, schedule: Q01DX001 (ip), vehicle: Klucel (hydroxypropylcellulose) (HPC)",91 % of control
same,T/C,[4],100 % of control
CCOC(=O)CCOc1ccccc1N(CCCl)CCCl,T/C,"dose: 0.66 mg/kg/injection, schedule: Q04DX003 (ip), vehicle: other",100 % of control
same,T/C,"dose: 1.0 mg/kg/injection, schedule: Q04DX003 (ip), vehicle: other",104 % of control
same,T/C,"dose: 1.5 mg/kg/injection, schedule: Q04DX003 (ip), vehicle: other",104 % of control
same,T/C,"dose: 1.56 mg/kg/injection, schedule: Q04DX003 (ip), vehicle: other",154 % of control
same,T/C,"dose: 2.25 mg/kg/injection, schedule: Q04DX003 (ip), vehicle: other",114 % of control
same,T/C,"dose: 3.0 mg/kg/injection, schedule: Q04DX003 (ip), vehicle: saline sonified",100 % of control
same,T/C,"dose: 3.13 mg/kg/injection, schedule: Q04DX003 (ip), vehicle: other",181 % of control
same,T/C,"dose: 3.5 mg/kg/injection, schedule: Q04DX003 (ip), vehicle: saline with Tween-80",172 % of control
same,T/C,"dose: 5.2 mg/kg/injection, schedule: Q04DX003 (ip), vehicle: saline with Tween-80",190 % of control
same,T/C,"dose: 6.0 mg/kg/injection, schedule: Q04DX003 (ip), vehicle: saline sonified",100 % of control
same,T/C,"dose: 9.0 mg/kg/injection, schedule: Q04DX003 (ip), vehicle: saline sonified",100 % of control
same,T/C,"dose: 11.0 mg/kg/injection, schedule: Q04DX003 (ip), vehicle: other",227 % of control
same,T/C,[1],152 % of control
same,T/C,"dose: 12.0 mg/kg/injection, schedule: Q04DX003 (ip), vehicle: saline",156 % of control
same,T/C,"dose: 12.5 mg/kg/injection, schedule: Q04DX003 (ip), vehicle: other",222 % of control
same,T/C,"dose: 16.5 mg/kg/injection, schedule: Q04DX003 (ip), vehicle: other",294 % of control
same,T/C,"dose: 25.0 mg/kg/injection, schedule: Q04DX003 (ip), vehicle: other",150 % of control
same,T/C,"dose: 25.0 mg/kg/injection, schedule: Q04DX003 (ip), vehicle: saline sonified",159 % of control
same,T/C,"dose: 50.0 mg/kg/injection, schedule: Q04DX003 (ip), vehicle: saline sonified",159 % of control
same,T/C,"dose: 100.0 mg/kg/injection, schedule: Q04DX003 (ip), vehicle: saline sonified",168 % of control
CNC(=S)N(C)C,T/C,"dose: 50.0 mg/kg/injection, schedule: Q01DX001 (ip), vehicle: saline",95 % of control
same,T/C,"dose: 100.0 mg/kg/injection, schedule: Q01DX001 (ip), vehicle: saline",103 % of control and 104 % of control
same,T/C,"dose: 200.0 mg/kg/injection, schedule: Q01DX001 (ip), vehicle: saline",95 % of control and 104 % of control
same,T/C,"dose: 400.0 mg/kg/injection, schedule: Q01DX001 (ip), vehicle: saline",91 % of control
COc1ccc(NC(=O)Nc2ccccc2F)cc1,T/C,"dose: 100.0 mg/kg/injection, schedule: Q01DX001 (ip), vehicle: saline with Tween-80",95 % of control
same,T/C,"dose: 200.0 mg/kg/injection, schedule: Q01DX001 (ip), vehicle: saline with Tween-80",95 % of control
same,T/C,"dose: 400.0 mg/kg/injection, schedule: Q01DX001 (ip), vehicle: saline with Tween-80",95 % of control
OC1CC[N-]CC1.OC1CC[N-]CC1.[Cl][Pt+2]([Cl])([Cl])[Cl],T/C,[5],109 % of control
same,T/C,[6],102 % of control
CC12CCC3c4ccccc4CCC3(CO1)C2 (stereo not drawn),T/C,"dose: 100.0 mg/kg/injection, schedule: Q01DX009 (ip), vehicle: Klucel (hydroxypropylcellulose) (HPC)",100 % of control
same,T/C,[2],104 % of control
same,T/C,"dose: 200.0 mg/kg/injection, schedule: Q01DX009 (ip), vehicle: Klucel (hydroxypropylcellulose) (HPC)",100 % of control
same,T/C,[3],108 % of control
same,T/C,"dose: 400.0 mg/kg/injection, schedule: Q01DX009 (ip), vehicle: Klucel (hydroxypropylcellulose) (HPC)",100 % of control
same,T/C,[4],100 % of control
CCC(=O)NC,T/C,"dose: 100.0 mg/kg/injection, schedule: Q01DX009 (ip), vehicle: saline",122 % of control
same,T/C,"dose: 100.0 mg/kg/injection, schedule: Q04DX003 (ip), vehicle: saline",100 % of control
same,T/C,[7],100 % of control
same,T/C,"dose: 200.0 mg/kg/injection, schedule: Q04DX003 (ip), vehicle: saline",104 % of control
same,T/C,[8],109 % of control
same,T/C,"dose: 400.0 mg/kg/injection, schedule: Q04DX003 (ip), vehicle: saline",100 % of control
COc1cccc(/C=N\NC(=O)C(C)SC(C)C(=O)N/N=C/c2cccc(OC)c2)c1 (stereo not drawn),T/C,[9],100 % of control
same,T/C,[10],104 % of control
same,T/C,"dose: 400.0 mg/kg/injection, schedule: Q01DX009 (ip), vehicle: saline with Tween-80",104 % of control
CCCCCC1c2c(cc(C)[nH]c2=O)OC(O)C1CCCC (stereo not drawn),T/C,[11],93 % of control
same,T/C,[9],90 % of control
same,T/C,[10],94 % of control
O=C1c2ccccc2C(=O)N1c1c2ccccc2cc2ccccc12,T/C,[12],100 % of control
same,T/C,[13],104 % of control
same,T/C,[14],100 % of control
Nc1nc2ncc(CN(CCS(=O)(=O)F)c3ccc(C(=O)NC(CCC(=O)O)C(=O)O)cc3)nc2c(=O)[nH]1 (stereo not drawn),T/C,"dose: 50.0 mg/kg/injection, schedule: Q04DX003 (ip), vehicle: sodium bicarbonate",105 % of control
same,T/C,"dose: 100.0 mg/kg/injection, schedule: Q04DX003 (ip), vehicle: sodium bicarbonate",99 % of control
same,T/C,"dose: 200.0 mg/kg/injection, schedule: Q04DX003 (ip), vehicle: sodium bicarbonate",94 % of control
CCNC(C)(C)C(O)c1ccc(Cl)s1 (stereo not drawn),T/C,"dose: 25.0 mg/kg/injection, schedule: Q01DX009 (ip), vehicle: saline with Tween-80",105 % of control
same,T/C,[5],102 % of control
same,T/C,[11],88 % of control
same,T/C,[6],100 % of control
same,T/C,[9],88 % of control
same,T/C,[12],86 % of control and 101 % of control
same,T/C,[13],88 % of control and 104 % of control
same,T/C,[14],92 % of control
COc1ccc(NC(=O)Oc2ccc(OC)cc2)cc1,T/C,[2],95 % of control
same,T/C,[3],100 % of control
same,T/C,[4],91 % of control
NC(N)=NO,T/C,"dose: 9.37 mg/kg/injection, schedule: Q01DX009 (ip), vehicle: saline",91 % of control
same,T/C,"dose: 9.38 mg/kg/injection, schedule: Q01DX009 (ip), vehicle: saline",90 % of control
same,T/C,"dose: 18.75 mg/kg/injection, schedule: Q01DX009 (ip), vehicle: saline",100 % of control and 103 % of control
same,T/C,"dose: 37.5 mg/kg/injection, schedule: Q01DX009 (ip), vehicle: saline",112 % of control and 115 % of control
same,T/C,[7],166 % of control and 168 % of control
same,T/C,"dose: 300.0 mg/kg/injection, schedule: Q01DX009 (ip), vehicle: saline",158 % of control and 163 % of control
same,T/C,[8],195 % of control and 198 % of control
C=CCOc1ccccc1N/N=C(\Cl)C(=O)OCC,T/C,[11],119 % of control
